How the values were obtained:
[1] = tested on: Neuroblastoma tumor cells injected into the adrenal; assay: Neuroblastoma tumor growth in mice, residual disease model; format: in vivo, NOD/SCID mice; conditions: 300 μg per mouse from day 3 until day 30 after inoculation; residual disease model (FIG. 7)
Experimental: (§1) NOD/SCID mice were maintained under defined flora conditions at the Hebrew University Pathogen-Free Animal Facility. All experiments were approved by the Animal Care Committee of the Hebrew University. 10^6 Neuroblastoma tumor cells were injected into the adrenal of the mice ([…] per mouse). As control, mice were treated with PBS. Tumor growth was monitored weekly. MRI testing was performed on a horizontal 4.7 T Bruker Biospec spectrometer, using a birdcage coil.

[2] = tested on: Neuroblastoma tumor cells injected into the adrenal; assay: Neuroblastoma tumor growth in mice, established (treatment) disease model; format: in vivo, NOD/SCID mice; conditions: subcutaneously 300 μg per mouse until day 30, started when tumor size reached ~0.04 cm^2 (FIG. 8)
Experimental: as §1

[3] = tested on: Neuroblastoma cancer cell lines (SHY-5Y, SK-N-BE and NHH-NB-11); assay: Neuroblastoma cell viability, CellTiter 96 AQueous Non-Radioactive Cell Proliferation Assay; format: cell-based, human; conditions: 72 hours, 10% FCS; compared to other CXCR4 antagonists (e.g. AMD3100) (FIG. 4)
Experimental: Neuroblastoma cancer cell lines (SHY-5Y, SK-N-BE and NHH-NB-11, FIGS. 4A, 4B, and 4C, respectively) were seeded at 2×10^4 viable cells/100 μl per well into a 96-well plate in triplicates in a medium supplemented with 10% FCS and incubated with different concentrations of BKT140, PLK1, AurA or AMD3100 for 72 hours. The plate was than tested for cell viability using the CellTiter 96® AQueous Non-Radioactive Cell Proliferation Assay.

[4] = tested on: epithelial tumor cells (e.g., breast and prostate carcinoma and glioblastoma); assay: Effect on epithelial tumor cells; format: cell-based; conditions: summary statement, example not given
[5] = tested on: Neuroblastoma cancer cell lines (SHY-5Y, SK-N-BE and NHH-NB-11); assay: Neuroblastoma cell death, PI+ cells by FACS and morphological assays; format: cell-based, human; conditions: 1% FCS, twenty hr, SK-N-BE and NHH-NB-11 (FIGS. 5, 6)
Experimental: The effect of BKT140 or AMD3100 on the proliferation of neuroblastoma cancer cell lines was tested by seeding the cells at 2×10^4 cells/1 ml per well into a 24-well plate in medium supplemented with 1% FCS. Twenty hr later the cells stained with PI (Sigma, St. Louis, Mo.), and the number of PI+cells (death cells) was determined using FACS analysis (as described above) (see, FIG. 6A).

[6] = tested on: Y79 Retinoblastoma cells; assay: Survival of Y79 retinoblastoma cells (PI staining, FACS); format: cell-based, human; conditions: 4, 8, 20 and 40 micromolar, 24 hr; PI staining FACS (FIG. 3)
Experimental: Y79: Retinoblastoma cells from primary tumor with familial history of Retinoblastoma;
All cell lines were cultured in RPMI1640 (Gibco BRL life technologies)+10% FCS, 1% L-Glutamine, 1% PS (Penicillin, Streptomycin) (Biological Industries, Kibbutz Beth Haemek, Israel) at 37° C., 5% CO2.
4F-benzoyl-TN14003 (designated BKT140) effect on Y79 Retinoblastoma cells survival.

4F-benzoyl-Arg-Arg-Nal-Cys-Tyr-Cit-Lys-DLys-Pro-Tyr-Arg-Cit-Cys-Arg-NH2 [4F-benzoyl-TN14003]
tumor growth [1]: delayed and in some cases inhibited tumor growth | tumor growth [2]: delayed and in some cases inhibited tumor growth | cell viability of neuroblastoma cells [3]: remarkably low cell viability | growth of epithelial tumor cells ([4]; breast and prostate carcinoma and glioblastoma): in some cases even stimulated the growth of epithelial tumor cells | epithelial tumor cell death [4]: did not induce epithelial tumor cell death | neuroblastoma cell death (PI+ cells) [5]: stimulate neuroblastoma cell death | cell death / survival of Y79 retinoblastoma cells [6]: stimulate cell death of retinoblastoma cells

Source: US20130303460A1, “PEPTIDES AND COMPOSITIONS FOR THE TREATMENT OF NEUROECTODERMAL DERIVED TUMORS AND RETINOBLASTOMA” (Biokine Therapeutics Ltd., priority 2011, published 2013)
